From patent US7138361B2, “Herbicidal heterocycles” (E. I. du Pont de Nemours and Company, priority 2000, dated 2006)

Tests used:
Format in all cases: in vivo
[1] = system: lambsquarters (Chenopodium album); assay: Test B preemergence; conditions: scale 0 to 100, 0 no effect, 100 complete control
Summary of the method: (§1)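 Ratings on a 0 to 100 visual scale (100 complete control) compare treated plants with controls 13 to 15 days after application. Treatments were pre- or postemergence sprays of compound in non-phytotoxic solvent with surfactant.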

[2] = system: barnyardgrass (Echinochloa crus-galli); assay: Test B preemergence; conditions: scale 0 to 100, 0 no effect, 100 complete control
Summary of the method: as §1

[3] = system: velvetleaf (Abutilon theophrasti); assay: Test B preemergence; conditions: scale 0 to 100, 0 no effect, 100 complete control
Summary of the method: as §1

[4] = system: Surinam grass (Brachiaria decumbens); assay: Test B preemergence; conditions: scale 0 to 100, 0 no effect, 100 complete control
Summary of the method: as §1

[5] = system: morning glory (Ipomoea hederacea); assay: Test B preemergence; conditions: scale 0 to 100, 0 no effect, 100 complete control
Summary of the method: as §1

[6] = system: crabgrass (Digitaria sanguinalis); assay: Test B preemergence; conditions: scale 0 to 100, 0 no effect, 100 complete control
Summary of the method: as §1

[7] = system: giant foxtail (Setaria faberii); assay: Test B preemergence; conditions: scale 0 to 100, 0 no effect, 100 complete control
Summary of the method: as §1

corn (Zea mays) [8] = assay: Test B preemergence; conditions: scale 0 to 100, 0 no effect, 100 complete control
Summary of the method: as §1

rice (Oryza saliva) [9] = assay: Test B preemergence; conditions: scale 0 to 100, 0 no effect, 100 complete control
Summary of the method: as §1

[10] = system: pigweed (Amaranthus retroflexus); assay: Test B preemergence; conditions: scale 0 to 100, 0 no effect, 100 complete control
Summary of the method: as §1

[11] = system: cocklebur (Xanthium strumarium); assay: Test B preemergence; conditions: scale 0 to 100, 0 no effect, 100 complete control
Summary of the method: as §1

[12] = system: blackgrass (Alopecurus myosuroides); assay: Test B postemergence; conditions: 13 to 15 days
Summary of the method: as §1

[13] = system: lambsquarters (Chenopodium album); assay: Test B postemergence; conditions: 13 to 15 days
Summary of the method: as §1

[14] = system: barnyardgrass (Echinochloa crus-galli); assay: Test B postemergence; conditions: 13 to 15 days
Summary of the method: as §1

[15] = system: velvetleaf (Abutilon theophrasti); assay: Test B postemergence; conditions: 13 to 15 days
Summary of the method: as §1

[16] = system: Surinam grass (Brachiaria decumbens); assay: Test B postemergence; conditions: 13 to 15 days
Summary of the method: as §1

[17] = system: morning glory (Ipomoea hederacea); assay: Test B postemergence; conditions: 13 to 15 days
Summary of the method: as §1

[18] = system: crabgrass (Digitaria sanguinalis); assay: Test B postemergence; conditions: 13 to 15 days
Summary of the method: as §1

[19] = system: wheat (Triticum aestivum); assay: Test B postemergence; conditions: 13 to 15 days
Summary of the method: as §1

wild oat (Avena fatua) = assay: Test B postemergence; conditions: 13 to 15 days
Summary of the method: as §1

[20] = system: giant foxtail (Setaria faberii); assay: Test B postemergence; conditions: 13 to 15 days
Summary of the method: as §1

corn (Zea mays) [21] = assay: Test B postemergence; conditions: 13 to 15 days
Summary of the method: as §1

[22] = system: pigweed (Amaranthus retroflexus); assay: Test B postemergence; conditions: 13 to 15 days
Summary of the method: as §1

[23] = system: cocklebur (Xanthium strumarium); assay: Test B postemergence; conditions: 13 to 15 days
Summary of the method: as §1

[24] = system: barnyardgrass (Echinochloa crus-galli); assay: Test C flooded paddy test; conditions: for Barnyardgrass plant response rating: Flooded Paddy, scale 0 to 100, 0 no effect, 100 complete control; for Plant response rating, Barnyardgrass: flooded paddy test, scale 0 to 100 (0 no effect, 100 complete control)
Summary of the method: (§2)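 Rice and three paddy weeds were grown to the 2-leaf stage under flooded conditions, then treated and kept in a greenhouse for 12–14 days. Response was rated visually against untreated controls on a 0–100 scale, where 100 is complete control.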

[25] = system: duck salad (Heteranthera limosa); assay: Test C flooded paddy test; conditions: for Ducksalad plant response rating: Flooded Paddy, scale 0 to 100, 0 no effect, 100 complete control; for Plant response rating, Ducksalad: flooded paddy test, scale 0 to 100 (0 no effect, 100 complete control)
Summary of the method: as §2

[26] = system: smallflower flatsedge (Cyperus difformis); assay: Test C flooded paddy test; conditions: for Flatsedge plant response rating: Flooded Paddy, scale 0 to 100, 0 no effect, 100 complete control; for Plant response rating, Flatsedge: flooded paddy test, scale 0 to 100 (0 no effect, 100 complete control)
Summary of the method: as §2

rice (Oryza saliva) [27] = assay: Test C flooded paddy test; conditions: for Rice plant response rating: Flooded Paddy, scale 0 to 100, 0 no effect, 100 complete control; for Plant response rating, Rice: flooded paddy test, scale 0 to 100 (0 no effect, 100 complete control)
Summary of the method: as §2

[28] = system: barnyardgrass (Echinochloa crus-galli); assay: Test B flooded paddy test; conditions: Rate 1000 g/ha, scale of 0 to 100 where 0 is no effect and 100 is complete control, visually evaluated after 13 to 15 days
Summary of the method: (§3)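 Treatment: formulated chemical applied to flooded paddy plants at 2-leaf stage. Hold: greenhouse, 13–15 days. Scoring: visual comparison to controls, 0 (no effect) to 100 (complete control).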

[29] = system: duck salad (Heteranthera limosa); assay: Test B flooded paddy test; conditions: Rate 1000 g/ha, scale of 0 to 100 where 0 is no effect and 100 is complete control, visually evaluated after 13 to 15 days
Summary of the method: as §3

[30] = system: smallflower flatsedge (Cyperus difformis); assay: Test B flooded paddy test; conditions: Rate 1000 g/ha, scale of 0 to 100 where 0 is no effect and 100 is complete control, visually evaluated after 13 to 15 days
Summary of the method: as §3

rice (Oryza saliva) [31] = assay: Test B flooded paddy test; conditions: Rate 1000 g/ha, scale of 0 to 100 where 0 is no effect and 100 is complete control, visually evaluated after 13 to 15 days
Summary of the method: as §3

[32] = Rate 125 g/ha, scale 0 (no effect) to 100 (complete control)
[33] = Rate 500 g/ha, scale 0 to 100, 0 is no effect, 100 is complete control

Compound: CC(C)c1ccn(C2SCN(c3cccc(C(F)(F)F)c3)C2=O)n1 (centres unmarked) [Compound 23]
- Plant response rating, Lambsquarters ([1]; Preemergence, Rate 500 g/ha): 100
- Plant response rating, Lambsquarters ([1]; preemergence, Rate 125 g/ha): 100
- Plant response rating, Barnyardgrass ([2]; Preemergence, Rate 500 g/ha): 100
- Plant response rating, Barnyardgrass ([2]; preemergence, Rate 125 g/ha): 0
- Plant response rating, Velvetleaf ([3]; Preemergence, Rate 500 g/ha): 0
- Plant response rating, Velvetleaf ([3]; preemergence, Rate 125 g/ha): 0
- Plant response rating, Surinam grass ([4]; Preemergence, Rate 500 g/ha): 20
- Plant response rating, Surinam grass ([4]; preemergence, Rate 125 g/ha): 0
- Plant response rating, Morningglory ([5]; Preemergence, Rate 500 g/ha): 60
- Plant response rating, Morningglory ([5]; preemergence, Rate 125 g/ha): 0
- Plant response rating, Crabgrass ([6]; Preemergence, Rate 500 g/ha): 100
- Plant response rating, Crabgrass ([6]; preemergence, Rate 125 g/ha): 70
- Plant response rating, Foxtail, Giant ([7]; Preemergence, Rate 500 g/ha): 50
- Plant response rating, Foxtail, Giant ([7]; preemergence, Rate 125 g/ha): 50
- Plant response rating, Corn (corn (Zea mays) [8]; Preemergence, Rate 500 g/ha): 0
- Plant response rating, Corn (corn (Zea mays) [8]; preemergence, Rate 125 g/ha): 0
- Plant response rating, Rice (rice (Oryza saliva) [9]; Preemergence, Rate 500 g/ha): 30
- Plant response rating, Rice (rice (Oryza saliva) [9]; preemergence, Rate 125 g/ha): 0
- Plant response rating, Pigweed ([10]; Preemergence, Rate 500 g/ha): 100
- Plant response rating, Pigweed ([10]; preemergence, Rate 125 g/ha): 100
- Plant response rating, Cocklebur ([11]; Preemergence, Rate 500 g/ha): 20
- Plant response rating, Cocklebur ([11]; preemergence, Rate 125 g/ha): 0
- Plant response rating, Blackgrass [12, 32]: 0
- Plant response rating, Blackgrass [12, 33]: 20
- Plant response rating, Lambsquarters [13, 32]: 80
- Plant response rating, Lambsquarters [13, 33]: 100
- Plant response rating, Barnyardgrass [14, 32]: 20
- Plant response rating, Barnyardgrass [14, 33]: 90
- Plant response rating, Velvetleaf [15, 32]: 20
- Plant response rating, Velvetleaf [15, 33]: 30
- Plant response rating, Surinam grass [16, 32]: 20
- Plant response rating, Surinam grass [16, 33]: 20
- Plant response rating, Morningglory [17, 32]: 20
- Plant response rating, Morningglory [17, 33]: 80
- Plant response rating, Crabgrass [18, 32]: 20
- Plant response rating, Crabgrass [18, 33]: 40
- Plant response rating, Wheat [19, 32]: 0
- Plant response rating, Wheat [19, 33]: 0
- Plant response rating, Wild Oat (wild oat (Avena fatua); [32]): 0
- Plant response rating, Wild Oat (wild oat (Avena fatua); [33]): 0
- Plant response rating, Foxtail, Giant [20, 32]: 20
- Plant response rating, Foxtail, Giant [20, 33]: 80
- Plant response rating, Corn (corn (Zea mays) [21]; [32]): 20
- Plant response rating, Corn (corn (Zea mays) [21]; [33]): 50
- Plant response rating, Pigweed [22, 32]: 70
- Plant response rating, Pigweed [22, 33]: 100
- Plant response rating, Cocklebur [23, 32]: 40
- Plant response rating, Cocklebur [23, 33]: 80
- Barnyardgrass plant response rating ([24]; Rate 250 g/ha): 100
- Barnyardgrass plant response rating ([24]; Rate 500 g/ha): 100
- Plant response rating, Barnyardgrass ([24]; Rate 62 g/ha): 80
- Plant response rating, Barnyardgrass ([24]; Rate 125 g/ha): 80
- Ducksalad plant response rating ([25]; Rate 250 g/ha): 100
- Ducksalad plant response rating ([25]; Rate 500 g/ha): 100
- Plant response rating, Ducksalad ([25]; Rate 62 g/ha): 50
- Plant response rating, Ducksalad ([25]; Rate 125 g/ha): 80
- Flatsedge plant response rating ([26]; Rate 250 g/ha): 100
- Flatsedge plant response rating ([26]; Rate 500 g/ha): 100
- Plant response rating, Flatsedge ([26]; Rate 62 g/ha): 100
- Plant response rating, Flatsedge ([26]; Rate 125 g/ha): 100
- Rice plant response rating (rice (Oryza saliva) [27]; Rate 250 g/ha): 70
- Rice plant response rating (rice (Oryza saliva) [27]; Rate 500 g/ha): 100
- Plant response rating, Rice (rice (Oryza saliva) [27]; Rate 62 g/ha): 20
- Plant response rating, Rice (rice (Oryza saliva) [27]; Rate 125 g/ha): 20
- Plant response rating, Barnyardgrass [28]: 0
- Plant response rating, Ducksalad [29]: 100
- Plant response rating, Flatsedge [30]: 0
- Plant response rating, Rice (rice (Oryza saliva) [31]): 0
